Experimental data published in US6683184B2, “Piperazine derivatives and process for the preparation thereof” (Samjin Pharmaceutical Co., Ltd., priority 1999, dated 2004).
≈ marks a conversion by molar mass, not a printed value. Read-outs that look alike come from different tables or passages of the source.

Key:
SKMEL-2 (human melanoma) = test: In vitro antitumor effect against human tumor cell lines, SRB assay, SKMEL-2; type: cell-based; details: Homo sapiens, SK-MEL-2 cells, 48 hours, read-out: ED50 SK-MEL-2
Procedure: (§1) In vitro antitumor effect against human tumor cell lines.
(§2) a. Human solid tumor cell lines, A549(non-small lung cell), SKMEL-2(melanoma), HCT-15(colon), SKOV-3(ovarian), XF-498(CNS) were cultured at 37° C. in 5% CO2 incubators using RPMI 1640 media containing 10% FBS, while they were transfer-cultured successively once or twice per week. Cell cultures were dissolved in a solution of 0.25% trypsin and 3 mM CDTA PBS(−) and then cells were separated from media which the cells were sticked on.
(§3) b. 5×10^3˜2×10^4 cells were added into each well of 96-well plate and cultured in 5% CO2 incubator, at 37° C., for 24 hours.
(§4) c. Each sample drug was dissolved in a little DMSO and diluted with the used medium to a prescribed concentration for experiments, wherein the final concentration of DMSO was controlled below 0.5%.
(§5) d. Medium of each well cultured for 24 hours as above b. was removed by aspiration. Each 200 μl of drug samples prepared in c. was added into each well and the wells were cultured for 48 hours. Tz(time zero) plates were collected at the point of time drugs were added.
(§6) e. According to the SRB assay method, cell fixing with TCA, staining with 0.4% SRB solution, washing with 1% acetic acid and elution of dye with 10 mM Tris solution were carried out on Tz plates and culture-ended plates, whereby OD values were measured at 520 nm.
(§7) a. Time zero(Tz) value was determined with measuring the SRB protein amounts of the Tz plates collected at the point of time drugs were added.
(§8) b. Control value(C) was determined with the OD values of wells untreated with a drug.
(§9) c. Drug-treated test value(T) was determined with the OD values of drug-treated wells.
(§10) d. Effects of drugs were estimated with growth stimulation, net growth inhibition, net killing etc., being calculated from Tz, C and T.
(§11) e. If T≧Tz, cellular response function was calculated by 100×(T−Tz)/(C−Tz), and if T<Tz, by 100×(T−Tz)/Tz.

[1] = system: A549 (human non-small lung cell); test: In vitro antitumor effect against human tumor cell lines, SRB assay, A549; type: cell-based; details: Homo sapiens, A549 cells, 48 hours, read-out: ED50 A 549
Procedure: as §1, §2, §3, §4, §5, §6, §7, §8, §9, §10, §11

SKOV-3 (human ovarian) = test: In vitro antitumor effect against human tumor cell lines, SRB assay, SKOV-3; type: cell-based; details: Homo sapiens, SK-OV-3 cells, 48 hours, read-out: ED50 SK-OV-3
Procedure: as §1, §2, §3, §4, §5, §6, §7, §8, §9, §10, §11

HCT-15 (human colon) = test: In vitro antitumor effect against human tumor cell lines, SRB assay, HCT-15; type: cell-based; details: Homo sapiens, HCT 15 cells, 48 hours, read-out: ED50 HCT 15
Procedure: as §1, §2, §3, §4, §5, §6, §7, §8, §9, §10, §11

XF 498 (human CNS) = test: In vitro antitumor effect against human tumor cell lines, SRB assay, XF 498; type: cell-based; details: Homo sapiens, XF498, XF-498 cells, 48 hours, read-out: ED50 XF-498
Procedure: as §1, §2, §3, §4, §5, §6, §7, §8, §9, §10, §11

[2] = system: P388 (mouse lymphoid neoplasma cell); test: In vitro antitumor effects against animal leukemia cells, dye exclusion assay; type: cell-based; details: 48 hours, trypan blue dye exclusion, read-out: P388 (IC50, concentration showing 50% cell growth inhibition compared with the control)
Procedure: In vitro antitumor effects against animal leukemia cells.
Tumor cell line: P388 (mouse lymphoid neoplasma cell)
B. Method: Dye Exclusion Assay.
1) Concentrations of P388 cells being cultured in RPMI 1640 media containing 10% FBS were regulated to 1×10^6 cells/ml.
2) Sample drugs of respective concentrations diluted in the ratio of log doses were added into each cell culture and cultured at 37° C., for 48 hours, in […] incubator, and then viable cell numbers were measured by dye exclusion test using trypan blue.

[3] = Acute toxicity test (LD50), Litchfield-Wilcoxon method; type: in vivo; details: mouse, in vivo, ICR mice, male, observed 14 days

| SMILES | IC50 (SKMEL-2 (human melanoma)) [ng/mL] | IC50 [1] [ng/mL] | IC50 (SKOV-3 (human ovarian)) [ng/mL] | IC50 (HCT-15 (human colon)) [ng/mL] | IC50 (XF 498 (human CNS)) [ng/mL] | IC50 [2] [ng/mL] | LD50 at 14 days ([3]; iv, i.v., read-out: LD50 i.v.) [mg/kg] | LD50 at 14 days ([3]; po, p.o., read-out: LD50 p.o.) [mg/kg] |
| --- | --- | --- | --- | --- | --- | --- | --- | --- |
| COc1cc(OC)cc(N2CCN(C(=O)Nc3nc4ccccc4nc3OC)CC2)c1 [Example 38, 1-[(2-Methoxyquinoxalin-3-yl)aminocarbonyl]-4-(3,5-dimethoxyphenyl)piperazine] | 0.04 (≈ 0.0945 nM) | 0.03 (≈ 0.0708 nM) | 0.09 (≈ 0.213 nM) | 0.13 (≈ 0.307 nM) | 0.11 (≈ 0.26 nM) | 10 (≈ 23.6 nM) | 97 | 410 |
| COc1nc(C)c(C)nc1NC(=O)N1CCN(c2cc(Cl)cc(Cl)c2)CC1 [Example 11, 1-[(5,6-Dimethyl-2-methoxypyrazin-3-yl)aminocarbonyl]-4-(3,5-dichlorophenyl)piperazine] |  |  |  |  |  | 20 (≈ 48.7 nM) |  |  |
| CCOc1nc2ccccc2nc1NC(=O)N1CCN(c2cc(OC)cc(OC)c2)CC1 [Example 72, 1-[(2-Ethoxyquinoxalin-3-yl)aminocarbonyl]-4-(3,5-dimethoxyphenyl)piperazine] | < 0.1 | 0.1 (≈ 0.229 nM) | 0.7 (≈ 1.6 nM) | 0.1 (≈ 0.229 nM) | 0.1 (≈ 0.229 nM) | 100 (≈ 229 nM) |  |  |
| COc1nc(C)c(C)nc1N(C)C(=O)N1CCN(c2cc(Cl)cc(Cl)c2)CC1 [Example 21, 1-[(5,6-Dimethyl-2-methoxypyrazin-3-yl)N-methylaminocarbonyl]-4-(3,5-dichlorophenyl)piperazine] | 24 (≈ 56.6 nM) | 38 (≈ 89.6 nM) | 93 (≈ 219 nM) | 8 (≈ 18.9 nM) | 97 (≈ 229 nM) | 800 (≈ 1890 nM) |  |  |
| COc1nc(C)c(C)nc1N(C)C(=O)N1CCN(c2cc(C)cc(C)c2)CC1 [Example 20, 1-[(5,6-Dimethyl-2-methoxypyrazin-3-yl)N-methylaminocarbonyl]-4-(3,5-dimethylphenyl)piperazine] | 211 (≈ 550 nM) | 323 (≈ 842 nM) | 904 (≈ 2360 nM) | 295 (≈ 769 nM) | 970 (≈ 2530 nM) | 1200 (≈ 3130 nM) |  |  |
| CCOc1nc2ccccc2nc1NC(=O)N1CCN(c2cc(C)cc(C)c2)CC1 [Example 74, 1-[(2-Ethoxyquinoxalin-3-yl)aminocarbonyl]-4-(3,5-dimethylphenyl)piperazine] | 3 (≈ 7.4 nM) | 2 (≈ 4.93 nM) | 38 (≈ 93.7 nM) | 28 (≈ 69.1 nM) | 24 (≈ 59.2 nM) | 680 (≈ 1680 nM) |  |  |
| COc1cc(OC)cc(N2CCN(C(=S)Nc3nc4ccccc4nc3OC)CC2)c1 [Example 64, 1-[(2-Methoxyquinoxalin-3-yl)aminothiocarbonyl]-4-(3,5-dimethoxyphenyl)piperazine] | 11 (≈ 25 nM) | 19 (≈ 43.2 nM) | 57 (≈ 130 nM) | 32 (≈ 72.8 nM) | 14 (≈ 31.9 nM) | 340 (≈ 774 nM) |  |  |
| COc1nc2ccccc2nc1NC(=S)N1CCN(c2cc(C)cc(C)c2)CC1 [Example 66, 1-[(2-Methoxyquinoxalin-3-yl)aminothiocarbonyl]-4-(3,5-di-methylphenyl)piperazine] | 2 (≈ 4.91 nM) | 5 (≈ 12.3 nM) | 8 (≈ 19.6 nM) | 3 (≈ 7.36 nM) | 8 (≈ 19.6 nM) | 200 (≈ 491 nM) |  |  |
| COc1nc(C)c(C)nc1NC(=O)N1CCN(c2cc(F)cc(F)c2)CC1 [Example 12, 1-[(5,6-Dimethyl-2-methoxypyrazin-3-yl)aminocarbonyl]-4-(3,5-difluorophenyl)piperazine] | 8 (≈ 21.2 nM) | 8 (≈ 21.2 nM) | 69 (≈ 183 nM) | 1 (≈ 2.65 nM) | 17 (≈ 45 nM) | 100 (≈ 265 nM) |  |  |
| COc1cc(OC)cc(N2CCN(C(=S)Nc3nc(C)c(C)nc3OC)CC2)c1 [Example 28, 1-[(5,6-Dimethyl-2-methoxypyrazin-3-yl)aminothiocarbonyl]-4-(3,5-dimethoxyphenyl)piperazine] | < 0.1 | 0.1 (≈ 0.24 nM) | 0.6 (≈ 1.44 nM) | 0.1 (≈ 0.24 nM) | 0.1 (≈ 0.24 nM) | 40 (≈ 95.8 nM) |  |  |
| COc1ccccc1N1CCN(C(=O)Nc2nc3ccccc3nc2OC)CC1 [Example 37, 1-[(2-Methoxyquinoxalin-3-yl)aminocarbonyl]-4-(2-methoxyphenyl)-piperazine] | 20 (≈ 50.8 nM) | 10 (≈ 25.4 nM) | 20 (≈ 50.8 nM) | 9 (≈ 22.9 nM) | 3 (≈ 7.62 nM) | 300 (≈ 762 nM) |  |  |
| COc1nc(C)c(C)nc1NC(=O)N1CCN(c2cc([N+](=O)[O-])cc([N+](=O)[O-])c2)CC1 [Example 15, 1-[(5,6-Dimethyl-2-methoxypyrazin-3-yl)aminocarbonyl]-4-(3,5-dinitrophenyl)piperazine] | 38 (≈ 88.1 nM) | 79 (≈ 183 nM) | 184 (≈ 427 nM) | 71 (≈ 165 nM) | 96 (≈ 223 nM) | 700 (≈ 1620 nM) |  |  |
| COc1nc(C)c(C)nc1NC(=S)N1CCN(c2cc(C)cc(C)c2)CC1 [Example 30, 1-[(5,6-Dimethyl-2-methoxypyrazin-3-yl)aminothiocarbonyl]-4-(3,5-dimethylphenyl)piperazine] | < 0.1 | 0.6 (≈ 1.56 nM) | 0.7 (≈ 1.82 nM) | 0.7 (≈ 1.82 nM) | 0.5 (≈ 1.3 nM) | 70 (≈ 182 nM) |  |  |
| COc1ccccc1N1CCN(C(=O)Nc2nc(C)c(C)nc2OC)CC1 [Example 2, 1-[(5,6-Dimethyl-2-methoxypyrazin-3-yl)aminocarbonyl]-4-(2-methoxyphenyl)piperazine] | 29 (≈ 78.1 nM) | 32 (≈ 86.2 nM) | 88 (≈ 237 nM) | 19 (≈ 51.2 nM) | 84 (≈ 226 nM) | 300 (≈ 808 nM) |  |  |
| COc1nc2ccccc2nc1NC(=O)N1CCN(c2cc([N+](=O)[O-])cc([N+](=O)[O-])c2)CC1 [Example 48, 1-[(2-Methoxyquinoxalin-3-yl)aminocarbonyl]-4-(3,5-dinitrophenyl)piperazine] | 0.3 (≈ 0.662 nM) | 1 (≈ 2.21 nM) | 7 (≈ 15.4 nM) | 2 (≈ 4.41 nM) | 4 (≈ 8.82 nM) | 390 (≈ 860 nM) |  |  |
| COc1cc(OC)cc(N2CCN(C(=O)Nc3nc(C)c(C)nc3OC)CC2)c1 [Example 3, 1-[(5,6-Dimethyl-2-methoxypyrazin-3-yl)aminocarbonyl]-4-(3,5-dimethoxyphenyl)piperazine] | 1.5 (≈ 3.74 nM) | 1.6 (≈ 3.99 nM) | 6.4 (≈ 15.9 nM) | 2 (≈ 4.98 nM) | 2.2 (≈ 5.48 nM) | 10 (≈ 24.9 nM) |  |  |
| COc1cc(OC)cc(N2CCN(C(=O)N(C)c3nc(C)c(C)nc3OC)CC2)c1 [Example 19, 1-[(5,6-Dimethyl-2-methoxypyrazin-3-yl)N-methylaminocarbonyl]-4-(3,5-dimethoxyphenyl)piperazine] | 43 (≈ 103 nM) | 6.4 (≈ 15.4 nM) | 143 (≈ 344 nM) | 80 (≈ 193 nM) | 93 (≈ 224 nM) | 200 (≈ 481 nM) |  |  |
